According to paper PMC8404199, “Structure–Activity Relationships of Triple-Action Platinum(IV) Prodrugs with Albumin-Binding Properties and Immunomodulating Ligands” (Journal of Medicinal Chemistry, 2021):
Where two headings read alike, the source gives them in different places.

What was measured:
[1] = system: CT26 colon cancer allografts; assay: Anticancer activity against CT26 allografts in Balb/c mice; assay type: in vivo; settings: iv, equimolar to 9 mg/kg oxaliplatin, twice a week for 2 weeks
Description: Every day, the animals were monitored for body weight and the enhanced stress level, and the tumor size was measured using a caliper according to the formula length × width^2/2.

[2] = Organ distribution of platinum in SKOV3-bearing SCID mice; settings: 24 h after single iv dose equimolar to 9 mg/kg oxaliplatin; for Platinum ratio tumor:kidney / Platinum ratio tumor:liver: ratio of mean platinum levels
Description: For tissue digestion, approx. 25–50 mg of tissue was weighed into perfluoralkoxy tubes, and 2 mL of HNO3 and 100 μL H2O2 (30%, Suprapur, Merck, Darmstadt, Germany) were added. The solutions were placed on a hot plate and heated up for 7 h using a temperature program with a maximum of 200 °C. The liquids were transferred to 15 mL tubes with the remaining solution being removed by washing twice with 4 mL of ultrapure water.
Platinum concentrations were measured using an Agilent 7800 ICP-QMS instrument (Agilent Technologies, Tokyo, Japan) equipped with an Agilent SPS 4 autosampler (Agilent Technologies, Tokyo, Japan) and a MicroMist nebulizer at a sample uptake rate of approx. 0.2 mL/min. […] All of the measured samples were blank corrected (for the cell culture data, wells containing no cells were used). Elemental standard solutions were purchased from Labkings (Hilversum, The Netherlands). The instrument was tuned on a daily basis.
SKOV3 cells (1.5 × 10^6 cells in 50 μL serum-free medium) were injected subcutaneously into the right flank of male SCID mice. […] Then, the animals were sacrificed by cervical dislocation, and tumors and organs were collected for the measurement with ICP–MS. For plasma isolation, blood was collected in ethylenediaminetetraacetic acid (EDTA)-coated tubes and centrifuged for 10 min at 900g at 4 °C. Plasma was transferred to a new tube and centrifuged once more to remove residual red blood cells.

IDO = assay: LC-HRMS of 1-MDT and Trp metabolites in tumor tissue; assay type: in vivo, mice; settings: 24 h after treatment
Description: To 50 mg of tumor tissue, 50 μL of fully ^13C internal standard (labeled yeast extract prepared in 2 mL of H2O; ISOtopic solutions e.U., Vienna, Austria) and 950 μL of 80% MeOH (LC–MS grade, Sigma-Aldrich, Vienna, Austria) were added and homogenized in a Dounce-type glass tissue grinder. The homogenate was collected, the tissue homogenizer was washed twice with 400 μL 80% MeOH (LC–MS grade, Sigma-Aldrich, Vienna, Austria), and the washing solution was added to the homogenate. The samples were vortexed, centrifuged (14,000g, 4 °C, 20 min), and kept on dry ice until further processing. 500 μL of tumor sample aliquots was dried for direct LC–HRMS analysis.
All samples were resuspended in 100 μL of water (supernatant sample: same volume; tumor samples 5-fold concentration) and measured using a 12 min method based on reversed-phase chromatography (column: HSS T3, 1.8 μm, 2.1 × 150 mm, Waters) and high-resolution mass spectrometry (Orbitrap HF, Thermo). For quantification, multi-point calibration with external standard mixes (Kyn, Trp, and kynurenic acid) using co-eluting ^13C internal standards was performed and analyzed by Skyline 20.2.0.286. For 1-MDT, relative quantification based on ^13C Trp normalization was performed.

[3] = system: human hepatic cell line (WRL68); assay: MTT cytotoxicity assay in non-malignant WRL68 cells; assay type: cell-based; settings: 72 h
Description: (§1) The cells were seeded at 3500–6000 cells/well in 96-well plates depending on the proliferation rate of the respective cell line and allowed to recover for 24 h. Subsequently, the cells were treated at indicated concentrations for 48 or 72 h. Cells were additionally incubated with 5-fold equimolar concentrations of ascorbic acid to increase the reduction rate of the compounds. Cell viability was measured by the MTT-based vitality assay (EZ4U; Biomedica, Vienna, Austria), following the manufacturer’s recommendations.

[4] = system: VM7 melanoma cancer cells; assay: MTT cytotoxicity assay in VM7 cells; assay type: cell-based, human; settings: 72 h
Description: as §1

[5] = system: murine CT26 colon cancer cells; assay: MTT cytotoxicity assay in CT26 cells; assay type: cell-based
Description: (§2) Cells were additionally incubated with 5-fold equimolar concentrations of ascorbic acid to increase the reduction rate of the compounds. Cell viability was measured by the MTT-based vitality assay (EZ4U; Biomedica, Vienna, Austria), following the manufacturer’s recommendations.

HCT116 cells = assay: Cellular platinum levels in HCT116 cells by ICP-MS; assay type: cell-based, human; settings: HCT116, 20 μM, 3 h incubation
Description: HCT116 cells were seeded at 6 × 10^5 cells/well in a six-well plate and allowed to settle for 24 h. Cells were exposed to drugs at 20 μM for 3 h under normal cell culture conditions. Cells were washed twice with PBS and lysed at RT in 500 μL HNO3 (≥69%, Rotipuran Supra, Carl Roth, Karlsruhe, Germany) for 1 h. 400 μL of the lysate was transferred to 7.6 mL of ultrapure water (18.2 MΩ cm, Milli-Q Advantage, Darmstadt, Germany).
The instrument was tuned on a daily basis.

human SKOV3 cancer cells = assay: MTT cytotoxicity assay in SKOV3 cells; assay type: cell-based; settings: 72 h incubation, with 5 eq. AA; read-out: SKOV3 IC50 values + 5 eq. AA, mean
Description: as §1

SKOV3 cancer cells = assay: Long-term cytotoxicity assay (crystal violet) in SKOV3 cells; assay type: cell-based, human; settings: 168 h, crystal violet stain, mean ± SD
Description: SKOV3 cells were seeded in duplicates at 5000 cells/well in 24-well plates and allowed to recover for 24 h. Subsequently, the cells were treated at the indicated concentrations for 168 h. Cells were fixed with ice-cold methanol (20 min at 4 °C), washed with PBS, and stained with crystal violet. Subsequently, colony formation was inspected, and the fluorescence signal was detected using Typhoon Trio imager (GE Healthcare, Little Chalfont, UK) at 610/30 nm BP and analyzed by ImageJ software.

[6] = system: human HCT116 colon cancer cells; assay: MTT cytotoxicity assay in HCT116 cells; assay type: cell-based
Description: as §2

[7] = system: human embryonic kidney cells (HEK293); assay: MTT cytotoxicity assay in non-malignant HEK293 cells; assay type: cell-based; settings: 72 h
Description: as §1

[8] = system: tumor-infiltrating T-cell populations; assay: Flow cytometry of T-cell populations in CT26 tumors and tumor-draining lymph nodes; assay type: in vivo, Balb/c mice; settings: 24 h after single iv treatment equimolar to 9 mg/kg oxaliplatin
Description: CT26 cells (5 × 10^5 cells in 50 μL of serum-free RPMI medium) were injected into the right flank of female Balb/c mice (n = 4 per group). On day 7, when the tumors reached a mean tumor volume of ∼170 mm^3, mice were treated once iv with MalEs/IdoCa at a concentration equimolar to 9 mg/kg (dissolved in 20% PG in PBS) or solvent only. After 24 h, the animals were sacrificed, and tumor tissues and the tumor-draining lymph nodes were isolated. Tissues were collected in a tube with 750 μL of ice-cold PBS containing 5% FBS and cut into small pieces. Samples were digested using PBS containing 50 mg/mL collagenase (C2139, Merck, Darmstadt, Germany) and 50 mg/mL DNase I (DN25, Darmstadt, Germany) and filtered several times through a 70 μm cell strainer (734-2761, VWR, Pennsylvania, USA). The samples were centrifuged, and cell pellets were treated with ammonium–chloride–potassium (ACK)-buffer (150 mM NH4Cl, 10 mM KHCO3, 127 μM EDTA, pH 7.2–7.4) to lyse red blood cells and centrifuged in a Würzburg buffer (PBS containing 5% FBS, 5 mM EDTA, 20 μg/mL DNase I).
Cells were washed with PBS and stained using the Aqua Zombie Fixable Viability Kit (423101, BioLegend, California, USA), according to the manufacturer’s instructions. […] The cleaned up data were analyzed using the gating strategy, as shown in Figure S15 for murine tissue and Figure S16 for human co-culture experiment.

[9] = UHPLC reduction experiments with L-ascorbic acid; assay type: physicochemical; settings: 1 mM complex, 10 mM AA, pH 7.4, 20 °C
Description: The platinum(IV)–succinimide complexes were dissolved in 2% DMF in phosphate buffer (500 mM, pH 7.4) to a final concentration of 2 mM. The solutions were then mixed 1:1 with a 20 mM stock of L-ascorbic acid in phosphate buffer (500 mM, pH 7.4) to obtain final concentrations of 1 mM complex, 10 mM L-ascorbic acid, and 1% DMF. The samples were incubated at 20 °C and measured on a Dionex UltiMate 3000 RS UPLC system with a Waters Acquity UPLC BEH C18 column (3 × 50 mm, pore size 1.7 μm) and absorption detection at 220 nm. Data points were taken at t = 0 and every 30 min for 6 h.

[10] = UHPLC reduction kinetics with dithiothreitol; assay type: physicochemical; settings: 1 mM complex, 10 mM DTT, 1% DMF, 500 mM phosphate buffer pH 7.4, 20 °C
Description: Figure S 3: Reduction kinetics of reference compounds with AA at 20°C , measured by UHPLC and UV absorption at 220 nm. A: Comparison of OAc/IPAEs with amino -group containing SucCa/IdoEs; B:
Reductive stability of reference compounds with no 1MDT -like ligand. AUC-values were normalized to t = 0. Experimental conditions: 1 mM complex, 10 mM AA in 1% DMF and 500 mM phosphate buffer […]
conditions: 1 mM complex, 10 mM DTT in 1% DMF and 500 mM phosphate buffer (pH 7.4). […]

## Cn1cc(C[C@@H]([NH3+])C(=O)[O][Pt]2([O]C(=O)NCCCCCN3C(=O)C=CC3=O)[O]C(=O)C(=O)[O]2)c2ccccc21.N[C@@H]1CCCC[C@H]1N.O=C([O-])C(F)(F)F [MalCa/IdoEs, (OC-6-34)-[(R)-2-Ammonio-3-(1-methyl-1H-indol-3-yl)propanoato][(1R,2R)-1,2-cyclohexanediamino][5-(2,5-dioxo-2,5-dihydro-1H-pyrrol-1-yl)pentylcarbamato]oxalatoplatinum(IV) Trifluoroacetate]
[1]
  anticancer activity against CT26 tumors (in words): significant anticancer activity
[2]
  platinum levels in blood plasma: 1.9 mg/kg
  Platinum ratio tumor:kidney: 0.6
  Platinum ratio tumor:liver: 0.6
IDO
  kynurenic acid in tumors (in words): enhanced signals

## O=C1[O][Pt]2([NH][C@@H]3CCCC[C@H]3[NH]2)[O]C1=O [oxaliplatin, reference compound]
[3]
  IC50: 8.35 µM
[4]
  IC50: 3.94 µM
[5]; 48 h incubation, with 5 equiv AA, read-out: CT26 IC50 values +AA, mean ± SD
  IC50: 1.53 ± 0.25 µM
[5]; 48 h incubation, without AA, read-out: CT26 IC50 values, mean ± SD
  IC50: 1.5 ± 0.39 µM
[5]; 72 h incubation, with 5 eq. AA, read-out: CT26 IC50 values + 5 eq. AA, mean
  IC50: 2.11 µM
[5]; 72 h incubation, without AA, read-out: CT26 IC50 values, mean
  IC50: 1.9 µM
HCT116 cells
  cellular platinum uptake (in words): taken up by the cells much more efficiently than any of the platinum(IV) prodrugs
Human SKOV3 cancer cells
  IC50: 43.4 µM
SKOV3 cancer cells
  IC50: 6.2 ± 1.1 µM
[6]; 48 h incubation, with 5 equiv AA, read-out: HCT116 IC50 values +AA, mean ± SD
  IC50: 0.67 ± 0.01 µM
[6]; 48 h incubation, without AA, read-out: HCT116 IC50 values, mean ± SD
  IC50: 0.72 ± 0.01 µM
[6]; 72 h incubation, with 5 eq. AA, read-out: HCT116 IC50 values + 5 eq. AA, mean
  IC50: 0.74 µM
[6]; 72 h incubation, without AA, read-out: HCT116 IC50 values, mean
  IC50: 0.76 µM
[7]
  IC50: 2.1 µM

## Cn1cc(C[C@@H](NC(=O)[O][Pt]2([O]C(=O)CCCCCN3C(=O)C=CC3=O)[O]C(=O)C(=O)[O]2)C(=O)O)c2ccccc21.N[C@@H]1CCCC[C@H]1N [MalEs/IdoCa, (OC-6-34)-[(R)-(1-Carboxy-2-(1-methyl-1H-indol-3-yl)ethyl)carbamato][(1R,2R)-1,2-cyclohexanediamino][6-(2,5-dioxo-2,5-dihydro-1H-pyrrol-1-yl)hexanoato]oxalatoplatinum(IV)]
[8]
  immune cell population in tumor-draining lymph nodes: no effect
  ratio of CD4+ to CD8+ T cells in the malignant tissue: significant shift
[1]
  anticancer activity against CT26 tumors (in words): activity comparable to MalCa/IdoCa
[2]
  plasma platinum concentration, fold higher than oxaliplatin or OAc/OAc: ~12 fold
  platinum levels in blood plasma: 5.9 mg/kg
  Platinum ratio tumor:kidney: 1.2
  Platinum ratio tumor:liver: 0.7
IDO; compared to solvent- or MalCa/IdoEs-treated animals
  IDO activity in tumor, Trp to Kyn ratio (in words): inhibition of IDO activity indicated by an improved Trp to Kyn ratio
IDO; SKOV3 tumor tissue
  1-MDT levels in tumor, fold higher than upon MalCa/IdoEs treatment: ~2 fold

## CC(=O)[O][Pt]12([O]C(=O)CCc3cn(C)c4ccccc34)([NH]C3CCCCC3[NH]1)[O]C(=O)C(=O)[O]2 [OAc/IPAEs, (OC-6-44)-Acetato[(1R,2R)-1,2-cyclohexanediamino][3-(1-methyl-1H-indol-3-yl)propanoato]oxalatoplatinum(IV)]
[9]
  reduction kinetics with AA (in words): comparable reduction kinetics to the carbamate-linked complexes
[10]
  reduction in the presence of dithiothreitol (in words): stable under these conditions
